US8658158B2, “Sensitization of chemotherapeutic agent resistant neoplastic cells with a virus” (Oncolytics Biotech Inc., priority 2001, dated 2014)
Entries after “also recorded” stand apart in the source; their conditions may differ.

Test system: ras-transformed C3H cells (C3H10T1/2 derived tumors)
Test: Tumor growth in C3H mice bearing subcutaneous ras-transformed C3H cell tumors, treated with reovirus and/or cisplatin
Assay type: in vivo
Settings: syngeneic tumors measured daily from Day 0, cisplatin 2.5 mg/kg tail vein Days 10, 16, 22, reovirus 5×10^8 PFUs i.v. Days 0, 6, 12, 18
Description: C3H mice (Charles River) were implanted subcutaneously with 1.0×10^6 […] ras-transformed C3H cells (a gift of D. Edwards, University of Calgary) and allowed to develop tumors. The Dearing strain of reovirus serotype 3 used in these studies was propagated in suspension cultures of L cells and purified according to Smith (Smith et al., 1969) with the exception that β-mercaptoethanol (β-ME) was omitted from the extraction buffer. The particle/PFU ratio for purified reovirus was typically 100/1.
The tumor bearing mice were treated with 4 different regimes as described below:
For animals which received reovirus (Series 3-4), 5×10^8 PFUs of reovirus (in 20 μl of saline) were injected intravenously via the tail vein of the animals on Days 0, 6, 12, and 18. […] Cisplatin was injected into the tail vein on Days 10, 16 and 22 at a dose of 2.5 mg per kilogram of body weight. The tumors were measured daily from Day 0 to assess growth rate of the tumors.

SMILES: N.N.[Cl][Pt][Cl] [cisplatin]
- effect on growth rate of the tumors: essentially no inhibitory effects; also recorded: no effect on the tumor; also recorded: growth rate that was essentially the same as untreated tumors
